One experiment relates to HXB2 virus. The experiment in a line: microbe, parasite or virus in culture. Particulars: Human immunodeficiency virus 1, HXB2, HeLaP4-2, read-out: antiviral IC50 (SCIA-B). It is filed as cell-based, HIV. In a few lines: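 Single-cycle infectivity assay in HeLa P4-2 cells measuring inhibition of acute HIV infection, using HXB2 virus.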
In the next experiment the target is HIV integrase (Human immunodeficiency virus type 1 group M subtype B, UniProt P04585). The experiment in a line: integrase strand transfer assay (STA). The class given is biochemical. Particulars: integrase strand transfer; read-out: IC50 in the STA assay.

Data on 38 molecules can be found in patent US20100056516A1 (priority 2006, published 2010).

On to `NCc1cccc(CNc2cc(=O)n(O)c3ncccc23)c1` [Example 159, 4-{[3-(aminomethyl)benzyl]amino}-1-hydroxy-1,8-naphthyridin-2(1H-one)], for which the half-maximal inhibitory concentration (IC50) with HXB2 virus is under 100 µM; on HIV integrase it was under 50 µM.
For `O=c1c(Br)c(O)c2cc(-c3ccncc3)cnc2n1O` [Example 72, 3-Bromo-1,4-dihydroxy-6-pyridin-4-yl-1,8-naphthyridin-2(1H)-one] the same measures were under 100 µM and under 50 µM.
The like results for `CCOC(=O)c1c(O)c2cc(Oc3ccc(N(CC)CC)cc3)cnc2n(O)c1=O` [Example 90, Ethyl 6-[4-(diethylamino)phenoxy]-1,4-dihydroxy-2-oxo-1,2-dihydro-1,8-naphthyridine-3-carboxylate] were, in that order, under 100 µM and under 50 µM.
For `CCCCc1c(O)c2cccnc2n(O)c1=O` [Example 42, 3-Butyl-1,4-dihydroxy-1,8-naphthyridin-2(1H)-one] the same measures were under 100 µM and under 50 µM.
As to `COc1ccc(-c2c(O)c3cccnc3n(O)c2=O)cc1` [Example 31, 1,4-Dihydroxy-3-(4-methoxyphenyl)-1,8-naphthyridin-2(1H)-one], the values for the IC50 with HXB2 virus and at HIV integrase were under 100 µM and under 50 µM, respectively.
In the case of `CCOC(=O)c1c(O)c2cc(C(=O)N3CCC(CCCc4ccccc4)CC3)cnc2n(O)c1=O` [Example 83, Ethyl 1,4-dihydroxy-2-oxo-6-{[4-(3-phenylpropyl)piperidin-1-yl]carbonyl}-1,2-dihydro-1,8-naphthyridine-3-carboxylate], the IC50 was under 100 µM with HXB2 virus and under 50 µM at HIV integrase.
For `O=c1cc(Nc2cccc(-c3ccccc3)c2)c2cccnc2n1O` [Example 105, 4-(Biphenyl-3-ylamino)-1-hydroxy-1,8-naphthyridin-2(1H)-one], the half-maximal inhibitory concentration (IC50) was under 100 µM with HXB2 virus and under 50 µM at HIV integrase.
As for `NS(=O)(=O)c1cccc(-c2cc(=O)n(O)c3ncccc23)c1` [Example 192, 3-(1-hydroxy-2-oxo-1,2-dihydro-1,8-naphthyridin-4-yl)benzenesulfonamide], the IC50 in the experiment on HXB2 virus was under 100 µM; on HIV integrase, under 50 µM.
For `O=c1c(-c2ccccc2Cl)c(O)c2cccnc2n1O` [Example 35, 3-(2-Chlorophenyl)-1,4-dihydroxy-1,8-naphthyridin-2(1H)-one] the same measures were under 100 µM and under 50 µM.
For `Nc1cccc(-c2cccc(Cc3cc(=O)n(O)c4ncccc34)c2)c1` [Example 233, 4-[(3′-aminobiphenyl-3-yl)methyl]-1-hydroxy-1,8-naphthyridin-2(1H)-one] the same measures were under 100 µM and under 50 µM.
For `CC(C)(C)NC(=O)c1cccc(-c2cc(=O)n(O)c3ncccc23)c1` [Example 182] the same measures were under 100 µM and under 50 µM.
Regarding `CN1C(=O)c2c(c3cccnc3n(O)c2=O)NC1c1cccc(Oc2ccccc2)c1` (stereo not shown) [Example 218, 6-Hydroxy-3-methyl-2-(3-phenoxyphenyl)-2,3-dihydropyrimido[5,4-c]-1,8-naphthyridine-4,5(1H, 6H)dione], the 50% inhibitory concentration (IC50) with HXB2 virus was under 100 µM; on HIV integrase it was under 50 µM.
For the molecule `CS(=O)(=O)Nc1cccc(-c2cccc(-c3cc(=O)n(O)c4ncccc34)c2)c1` [Example 177, N-[3′-(1-hydroxy-2-oxo-1,2-dihydro-1,8-naphthyridin-4-yl)biphenyl-3-yl]methanesulfonamide], the half-maximal inhibitory concentration (IC50) in the experiment with HXB2 virus is under 100 µM; on HIV integrase it was under 50 µM.
The like results for `N#Cc1cccc(-c2cccc(-c3cc(=O)n(O)c4ncccc34)c2)c1` [Example 202, 3′-(1-hydroxy-2-oxo-1,2-dihydro-1,8-naphthyridin-4-yl)biphenyl-3-carbonitrile] were, in that order, under 100 µM and under 50 µM.
The like results for `O=c1cc(NCc2cccnc2)c2cccnc2n1O` [Example 162, 1-hydroxy-4-[(3-pyrindinylmethyl)amino]-1,8-naphthyridin-2 (1H-one)] were, in that order, under 100 µM and under 50 µM.
The like results for `O=c1cc(N[C@@H]2CCN(Cc3ccccc3)C2)c2cccnc2n1O` [Example 113, 4-{[(3R)-1-Benzylpyrrolidin-3-yl]amino}-1-hydroxy-1,8-naphthyridin-2(1H)-one] were, in that order, under 100 µM and under 50 µM.
Regarding `O=c1cc(NCc2cnc(-c3ccccc3)[nH]2)c2cccnc2n1O` [Example 167, 1-hydroxy-4-{[(2-phenyl-1-imidazole-5-yl)methyl]amino}-1,8-naphthyridin-2 (1H-one)], the results for the half-maximal inhibitory concentration (IC50) in the experiment with HXB2 virus and at HIV integrase were under 100 µM and under 50 µM, respectively.
For `CC1CCN(Cc2cccc(CNc3cc(=O)n(O)c4ncccc34)c2)CC1` [Example 165, 1-hydroxy-4-({3-[(4-methyl-1-piperidinyl)methyl]benzyl}amino)-1,8-naphthyridin-2 (1H-one)], the IC50 with HXB2 virus is under 100 µM; at HIV integrase, under 50 µM.
The like results for `CCOC(=O)c1c(Nc2ccccc2)c2cccnc2n(O)c1=O` [Example 127, Ethyl 4-anilino-1-hydroxy-2-oxo-1,2-dihydro-1,8-naphthyridine-3-carboxylate] were, in that order, under 100 µM and under 50 µM.
For `CN(C(=O)c1c(O)c2cccnc2n(O)c1=O)C1CCN(C(=O)OC(C)(C)C)CC1` [Example 9] the same measures were under 100 µM and under 50 µM.
For the molecule `O=c1c(Cc2ccccc2)c(O)c2cc(-c3ccccc3)cnc2n1O` [Example 67, 3-Benzyl-1,4-dihydroxy-6-phenyl-1,8-naphthyridin-2(1H)-one], the half-maximal inhibitory concentration (IC50) is under 100 µM in the experiment with HXB2 virus and under 50 µM at HIV integrase.
The like results for `CN1CCN(c2cc(=O)n(O)c3ncccc23)CC1=O` [Example 148, 1-hydroxy-4-(4-methyl-3-oxo-1-piperazinyl)-1,8-naphthyridin-2 (1H-one)] were, in that order, under 100 µM and under 50 µM.
The like results for `CCOC(=O)c1c(NCc2ccccc2)c2cccnc2n(O)c1=O` [Example 128, Ethyl 4-(benzylamino)-1-hydroxy-2-oxo-1,2-dihydro-1,8-naphthyridine-3-carboxylate] were, in that order, under 100 µM and under 50 µM.
The like results for `O=c1c(-c2ccccc2)c(O)c2cc(-c3cccc(-c4ccccc4)c3)cnc2n1O` [Example 54, 6-Biphenyl-3-yl-1,4-dihydroxy-3-phenyl-1,8-naphthyridin-2(1H)-one] were, in that order, under 100 µM and under 50 µM.
Take `O=c1cc(NCc2ccccc2F)c2cccnc2n1O` [Example 155, 4-[(2-fluorobenzyl)amino]-1-hydroxy-1,8-naphthyridin-2(1H-one)]: the IC50 was under 100 µM in the experiment with HXB2 virus and under 50 µM at HIV integrase.
On to `CCOC(=O)c1c(N[C@@H](CO)c2ccccc2)c2cccnc2n(O)c1=O` [Example 129, Ethyl 1-hydroxy-4-{[(1R)-2-hydroxy-1-phenylethyl]amino}-2-oxo-1,2-dihydro-1,8-naphthyridine-3-carboxylate], for which the IC50 in the experiment with HXB2 virus was under 100 µM; at HIV integrase it was under 50 µM.
With `CNC(=O)c1cccc(-c2cc(=O)n(O)c3ncccc23)c1` [Example 180, 3-(1-hydroxy-2-oxo-1,2-dihydro-1,8-naphthyridin-4-yl)-N-methylbenzamide], the IC50 in the experiment on HXB2 virus was under 100 µM; at HIV integrase, under 50 µM.
For `CS(=O)(=O)Nc1ccccc1-c1cc(=O)n(O)c2ncccc12` [Example 201, N-[2-(1-hydroxy-2-oxo-1,2-dihydro-1,8-naphthyridin-4-yl)phenyl]methanesulfo-namide] the same measures were under 100 µM and under 50 µM.
The like results for `O=C(c1cccc(-c2cc(=O)n(O)c3ncccc23)c1)N1CCCC1` [Example 195, 1-hydroxy-4-[3-(pyrrolidin-1-ylcarbonyl)phenyl]-1,8-naphthyridin-2(1H)-one] were, in that order, under 100 µM and under 50 µM.
For `O=c1cc(O)c2cccnc2n1O` [Example 2, 1,4-Dihydroxy-1,8-naphthyridin-2(1B)-one] the same measures were under 100 µM and under 50 µM.
In the case of `O=c1c2cc(-c3ccccc3)ccc2c2cccnc2n1O` [Example 268, 5-Hydroxy-8-phenylbenzo[c]-1,8-naphthyridin-6(5H)-one], the half-inhibitory concentration (IC50) in the experiment with HXB2 virus was under 100 µM; on HIV integrase, under 50 µM.
As for `O=c1cc(NCc2cccc(CN3CCCCC3)c2)c2cccnc2n1O` [Example 153], the IC50 in the experiment with HXB2 virus was under 100 µM; on HIV integrase it was under 50 µM.
For `NCc1ccc(-c2cccc(-c3ccnc4c3c(O)cc(=O)n4O)c2)cc1` [Example 228, 5-[4′-(aminomethyl)biphenyl-3-yl]-1,4-dihydroxy-1,8-naphthyridin-2(1H)-one] the same measures were under 100 µM and under 50 µM.
The like results for `CCOC(=O)c1c(-c2ccc(CCc3ccc(N)cc3)cc2)c2cccnc2n(O)c1=O` [Example 264, ethyl 4-{4-[2-(4-aminophenyl)ethyl]phenyl}1-hydroxy-2-oxo-1,2,-dihydro-1,8-naphthyridin-3-carboxylate] were, in that order, under 100 µM and under 50 µM.
The like results for `O=c1cc(NCCc2ccccc2)c2cccnc2n1O` [Example 132, 1-hydroxy-4-[(2-phenylethyl)amino]-1,8-naphthyridin-2(1H)-one] were, in that order, under 100 µM and under 50 µM.
For `O=c1c(-c2ccccc2)c(O)c2cc(S(=O)(=O)NCc3ccccc3)cnc2n1O` [Example 96, N-benzyl-5,8-dihydroxy-7-oxo-6-phenyl-7,8-dihydro-1,8-naphthyridine-3-sulfonamide], the half-inhibitory concentration (IC50) is under 100 µM in the experiment on HXB2 virus and under 50 µM at HIV integrase.
With `O=c1cc(O)c2c(-c3cccc(O)c3)ccnc2n1O` [Example 226, 1,4-dihydroxy-5-(3-hydroxyphenyl)-1,8-naphthyridin-2(1H)-one], the IC50 in the experiment with HXB2 virus is under 100 µM; at HIV integrase, under 50 µM.
For the molecule `O=c1c(-c2ccccc2)c(O)c2cc(Cc3ccccc3)cnc2n1O` [Example 52, 6-Benzyl-1,4-dihydroxy-3-phenyl-1,8-naphthyridin-2(1H)-one], the values for the IC50 in the experiment on HXB2 virus and on HIV integrase were under 100 µM and under 50 µM, respectively.
